From US12521438B2, “SMARCA degraders and uses thereof” (Kymera Therapeutics, Inc., priority 2019, dated 2026)

Legend:
Type in all cases: cell-based
[1] = target: T1, SMARCA4 (Homo sapiens, UniProt P51532); experiment: SMARCA4 Western blot MV4-11 degradation; details: MV4-11 cells, 24 hours; for Dmax: read-out: SMARCA4 WB MV411 degradation 24h: Average Dmax %; for DC50: read-out: SMARCA4 WB MV411 degradation 24h: Average external-Abs DC50
T1 construct: endogenous in cells; host or cells: MV4-11
Description: (§1) Example 10. SMARCA2 and SMARCA 4 Western Blot MV4-11 Degradation
(§2) Cells were seeded into 6-well plates (MV4-11: 4×10^6 cells/well/1 ml) and 1 ml of 2× compound solution was added into the well to make the final concentration and the plates were mixed well and incubated for 24 hours (No cytotoxicity was observed). The cell were collected with media and spun at 3000 rpm for 5 minutes. The supernatant was aspirated and the well and the cells were washed with cold PBS once and combined for centrifugation again; the supernatant aspirated again. 200 ul pre-chilled RIPAlysis buffer (Boston BioProducts BP-115D) with protease/phosphatase inhibitor (Roche 05892791001/Roche 04906837001) was directly added into the tube to lyze the cells for 20 minutes on ice. The cell lysate were collected into EP tubes and spun at 13000 rpm for 20 minutes and 72 ul supernatant was transferred to a fresh EP tube containing 18 ul of 5× loading buffer (Beyotime Bio P0015) to make the loading samples. The samples were heated to 100° C. for 10 minutes and cooled to RT and microcentrifuged. 20 ul of samples were loaded onto SDS-PAGE gel (Novex, WG1402BOX) and the gel was run at 80 V for 20 minutes and 120 V for 1.5 hours. The samples were electrotransfer to a NC membrane using wet-transfer method with 250 mA for 2.5 hours. The membrane was blocked with LICOR blocking buffer (LI-COR, 927-50000) for 1 hour. The membrane was washed three times with TBST (CST #9997S), 5 minutes each. Incubation was performed with primary antibody prepared in blocking buffer with 0.1% Tween-20 (Solarbio, P8220) at 4° C. overnight (Anti-SMARCA2/BRM antibody (ab15597) 1:500; Anti-BRG1 antibody [EPR3912] (ab108318) 1:1000; Rabbit anti-Baf180 antibody [EPR15860] (Abcam,ab196022) 1:1000; mouse anti-beta-Actin (8H10D10) (CST #3700) 1:10000). The membrane was washed three times with TBST, 5 minutes each. Incubation with secondary antibody was performed for 1 hour at RT (anti-rabbit IgG (Licor, 926-32211) 1:5000; anti-mouse IgG (LI-COR, 926-68070) 1:5000). The membrane was washed three times with 5 minutes each and lastly the LiCOR was read.

[2] = target: T2, SMARCA2 (Homo sapiens, UniProt P51531); experiment: MSD SMARCA2 degradation in NCI-H1299 cell line; parameters: endogenous in cells; details: NCI-H1299 cells, 24 hours
Description: Example 8. MSD SMARCA2 Degradation in NCI-H1299 Cell Line
Cell Culture: Cells were Cultured in Exponential Growth Phase.
Compound Preparation and Treatment: NCI-H1299 cells were seeded into the 96-well plate at 4.0*10^4 cells per 100 ul per well. Incubate the plate in the incubator overnight. The next day, compounds were diluted to designed stock concentration by TECAN, then perform a 3 fold, 9-point dilution via transferring 15 uL compound into 30 μL DMSO using Apricot. 200 nL diluted compound from compound source plate were transferred into the 96-intermediate plate as designated by using Echo550, followed with 100 ul culture medium to make the 2× compound solution. Cell plate were changed with 80 ul of fresh culture medium and 80 ul of 2× compound solution was added into the well to achieve the final designed concentration. Cell plate was then shaken at 720 rpm for 5 min and incubated for 24 hours in the incubator.
Sample Preperation: Media was aspirated from the cultures and the plate was washed with PBS twice. 60 ul of pre-chilled PIPA lysis buffer (Boston BioProducts BP-115D) with protease inhibitor were directly added into the well to lyze the cells for 20 minutes at 4° C. Cell lysates were collected.
MSD Procedure: The MSD plate was coated with 40 ul cell lysate and incubated at 4° C. overnight. The next day, the MSD coated bare plate was washed 3 times with 150 ul 1×TBST per well, blocked with 150 ul of blocking buffer per well, and shaken for 1 hour at RT, 600 rpm. Blocking buffer was 3% Blocker A in TBST. MSD plate was then washed 3 times with 150 ul 1× TBST per well and Primary Detection antibody (Rabbit anti-SMARCA2/BRM antibody, 100 μg/ml, ab223735) was added to a final [conc.]: 0.3 ug/ml, 25 ul/well and shaken for 1 hour at RT, 600 rpm. Antibody was prepared in Antibody Detection buffer (1% Blocker A in 1×TBST). The MSD plate was then washed 3 times with 150 ul 1×TBST per well. Secondary Detection antibody (SULFO-TAG anti-species antibody) was then added to a final [conc.]: 1 ug/ml, 25 ul/well, and shaken for 1 hour at RT, 600 rpm. Antibodies were prepared in Antibody Detection buffer (1% Blocker A in 1×TBST). MSD plate was washed 3 times with 150 ul 1×TBST per well and 2× MSD reading buffer was added, 150 ul per well, and diluted from 4× with water. MSD instrument was then read.
Data Analysis: The percentage of relative level of SMARCA2 level was calculated following equation below.
LC: A2780, SMARCA2 negative cells. HC: NCI-H1299 cells treated with DMSO.

[3] = target: T2, SMARCA2; experiment: MSD SMARCA2 degradation in A549 cell line; parameters: endogenous in cells; host or cells: A549; details: A549 cells, 24 hours
Description: Example 9. MSD SMARCA2 Degradation in A549 Cell Line
Cells were seeded into 96-well plates (A549 cells: 2×10^4 cells/well/100 ul media) abd incubated overnight. The next day, 200 nl compound were added into the intermediate plate with Echo (Labcyte 550) from source plate containing a 3-fold serial dilution from top concentration of 1 mM. The culture medium was changed with 80 ul of fresh medium and 80 ul of 2× compound solution was added into the well to make a final concentration of 1000 nM, 333.3 nM, 111.1 nM, 37.04 nM, 12.35 nM, 4.115 nM, 1.372 nM, 0.457 nM, 0.152 nM and 0 nM (DMSO). The wells were mixed and then incubated for 24 hours. The media was aspirated from the cultures and 60 ul pre-chilled PIPA lysis buffer (Boston BioProducts BP-115D) with protease/phosphatase inhibitor (Roche 05892791001/Roche 04906837001) was added into the well to lyze the cells for 20 minutes at 4° C. The MSD plate (L15XA) was coated with 40 ul cell lysate and incubated at 4° C. overnight. The next day, the plate was washed three times with TBST (CST #9997S), 150 ul/well. The MSD plates was blocked with 150 ul blocking buffer per well and shaked for 1 hr at RT, 600 rpm. The blocking buffer was 3% Blocker A (MSD, R93BA-4) in TBST. The MSD plate was washed three times with 150 ul/well of TBST and 25 ul/well of detection antibody (Rabbit anti-SMARCA2/BRM antibody, 100 μg/ml, ab223735) was added at final concentration of 1 ug/ml diluted in 1% Blocking buffer and shaken for 1 hour at RT, 600 rpm. The MSD plate was washed three times with 150 ul/well of TBST and 25 ul/well of SULFO-TAG anti-rabbit antibody (MSD, R32AB-1) was added at final concentration of 1 ug/ml diluted in 1% Blocking buffer and shaken for 1 hour at RT, 600 rpm. The MSD plate was washed three times with 150 ul/well of TBST and 150 ul/well of 2×MSD reading buffer diluted from 4× (MSD, R92TC-2) with water was added. Lastly, the MSD instrument was read.

[4] = target: T2, SMARCA2; experiment: SMARCA2 Western blot MV4-11 degradation; parameters: endogenous in cells; details: MV4-11 cells, 24 hours
Description: as §1
as §2, with “The membrane was blocked with LICOR blocking buffer (LI-COR, 927-50000) for 1 hour. The membrane was washed three times with TBST (CST #9997S), 5 minutes each. Incubation was performed with primary antibody prepared in blocking buffer with 0.1% Tween-20 (Solarbio, P8220) at 4° C. overnight (Anti-SMARCA2/BRM antibody (ab15597) 1:500; Anti-BRG1 antibody [EPR3912] (ab108318) 1:1000; Rabbit anti-Baf180 antibody [EPR15860] (Abcam,ab196022) 1:1000; mouse anti-beta-Actin (8H10D10) (CST #3700) 1:10000). The membrane was washed three times with TBST, 5 minutes each. Incubation with secondary antibody was performed for 1 hour at RT (anti-rabbit IgG (Licor, 926-32211) 1:5000; anti-mouse IgG (LI-COR, 926-68070) 1:5000).” left out

T1 sequence (P51532 whole entry): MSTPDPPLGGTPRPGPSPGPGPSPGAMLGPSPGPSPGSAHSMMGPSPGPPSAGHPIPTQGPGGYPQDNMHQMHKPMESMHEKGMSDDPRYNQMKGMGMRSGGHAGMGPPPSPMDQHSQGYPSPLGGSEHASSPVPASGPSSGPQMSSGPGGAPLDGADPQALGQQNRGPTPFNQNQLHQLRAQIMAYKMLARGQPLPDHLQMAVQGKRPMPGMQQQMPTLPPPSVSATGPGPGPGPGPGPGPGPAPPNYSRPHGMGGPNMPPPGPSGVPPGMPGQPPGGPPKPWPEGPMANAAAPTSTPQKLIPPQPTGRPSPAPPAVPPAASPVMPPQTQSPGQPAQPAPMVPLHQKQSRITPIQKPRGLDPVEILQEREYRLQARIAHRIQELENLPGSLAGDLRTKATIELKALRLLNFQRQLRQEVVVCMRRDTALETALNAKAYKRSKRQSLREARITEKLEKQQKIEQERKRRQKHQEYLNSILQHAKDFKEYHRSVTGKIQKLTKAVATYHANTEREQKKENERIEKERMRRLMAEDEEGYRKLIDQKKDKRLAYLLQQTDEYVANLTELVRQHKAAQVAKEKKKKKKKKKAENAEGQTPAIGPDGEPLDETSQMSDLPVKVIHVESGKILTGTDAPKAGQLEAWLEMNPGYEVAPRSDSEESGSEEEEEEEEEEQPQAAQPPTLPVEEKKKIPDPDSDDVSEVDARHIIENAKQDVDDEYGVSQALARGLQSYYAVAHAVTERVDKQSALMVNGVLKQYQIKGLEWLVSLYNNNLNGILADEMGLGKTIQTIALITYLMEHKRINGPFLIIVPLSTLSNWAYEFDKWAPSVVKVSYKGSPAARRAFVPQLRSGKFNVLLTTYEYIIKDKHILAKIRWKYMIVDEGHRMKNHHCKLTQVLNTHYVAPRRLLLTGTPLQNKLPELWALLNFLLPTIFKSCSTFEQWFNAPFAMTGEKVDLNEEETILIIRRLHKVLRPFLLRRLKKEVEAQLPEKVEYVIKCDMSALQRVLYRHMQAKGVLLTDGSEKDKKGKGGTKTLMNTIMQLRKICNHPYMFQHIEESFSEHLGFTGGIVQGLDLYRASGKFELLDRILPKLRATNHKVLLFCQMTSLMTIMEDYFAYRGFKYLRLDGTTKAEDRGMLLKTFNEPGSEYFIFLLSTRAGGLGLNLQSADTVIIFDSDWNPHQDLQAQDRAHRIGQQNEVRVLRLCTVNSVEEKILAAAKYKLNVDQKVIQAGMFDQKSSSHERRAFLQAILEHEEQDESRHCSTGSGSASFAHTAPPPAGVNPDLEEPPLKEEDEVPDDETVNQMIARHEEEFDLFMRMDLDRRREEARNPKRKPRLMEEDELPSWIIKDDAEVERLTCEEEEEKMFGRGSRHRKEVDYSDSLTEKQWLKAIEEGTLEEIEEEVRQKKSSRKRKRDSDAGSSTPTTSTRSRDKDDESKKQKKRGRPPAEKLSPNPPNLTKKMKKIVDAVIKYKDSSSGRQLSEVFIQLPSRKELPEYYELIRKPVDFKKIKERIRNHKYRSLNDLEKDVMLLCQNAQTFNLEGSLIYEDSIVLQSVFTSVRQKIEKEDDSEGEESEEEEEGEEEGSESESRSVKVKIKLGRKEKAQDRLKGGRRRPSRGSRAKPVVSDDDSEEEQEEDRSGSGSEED
T2 sequence (P51531 whole entry): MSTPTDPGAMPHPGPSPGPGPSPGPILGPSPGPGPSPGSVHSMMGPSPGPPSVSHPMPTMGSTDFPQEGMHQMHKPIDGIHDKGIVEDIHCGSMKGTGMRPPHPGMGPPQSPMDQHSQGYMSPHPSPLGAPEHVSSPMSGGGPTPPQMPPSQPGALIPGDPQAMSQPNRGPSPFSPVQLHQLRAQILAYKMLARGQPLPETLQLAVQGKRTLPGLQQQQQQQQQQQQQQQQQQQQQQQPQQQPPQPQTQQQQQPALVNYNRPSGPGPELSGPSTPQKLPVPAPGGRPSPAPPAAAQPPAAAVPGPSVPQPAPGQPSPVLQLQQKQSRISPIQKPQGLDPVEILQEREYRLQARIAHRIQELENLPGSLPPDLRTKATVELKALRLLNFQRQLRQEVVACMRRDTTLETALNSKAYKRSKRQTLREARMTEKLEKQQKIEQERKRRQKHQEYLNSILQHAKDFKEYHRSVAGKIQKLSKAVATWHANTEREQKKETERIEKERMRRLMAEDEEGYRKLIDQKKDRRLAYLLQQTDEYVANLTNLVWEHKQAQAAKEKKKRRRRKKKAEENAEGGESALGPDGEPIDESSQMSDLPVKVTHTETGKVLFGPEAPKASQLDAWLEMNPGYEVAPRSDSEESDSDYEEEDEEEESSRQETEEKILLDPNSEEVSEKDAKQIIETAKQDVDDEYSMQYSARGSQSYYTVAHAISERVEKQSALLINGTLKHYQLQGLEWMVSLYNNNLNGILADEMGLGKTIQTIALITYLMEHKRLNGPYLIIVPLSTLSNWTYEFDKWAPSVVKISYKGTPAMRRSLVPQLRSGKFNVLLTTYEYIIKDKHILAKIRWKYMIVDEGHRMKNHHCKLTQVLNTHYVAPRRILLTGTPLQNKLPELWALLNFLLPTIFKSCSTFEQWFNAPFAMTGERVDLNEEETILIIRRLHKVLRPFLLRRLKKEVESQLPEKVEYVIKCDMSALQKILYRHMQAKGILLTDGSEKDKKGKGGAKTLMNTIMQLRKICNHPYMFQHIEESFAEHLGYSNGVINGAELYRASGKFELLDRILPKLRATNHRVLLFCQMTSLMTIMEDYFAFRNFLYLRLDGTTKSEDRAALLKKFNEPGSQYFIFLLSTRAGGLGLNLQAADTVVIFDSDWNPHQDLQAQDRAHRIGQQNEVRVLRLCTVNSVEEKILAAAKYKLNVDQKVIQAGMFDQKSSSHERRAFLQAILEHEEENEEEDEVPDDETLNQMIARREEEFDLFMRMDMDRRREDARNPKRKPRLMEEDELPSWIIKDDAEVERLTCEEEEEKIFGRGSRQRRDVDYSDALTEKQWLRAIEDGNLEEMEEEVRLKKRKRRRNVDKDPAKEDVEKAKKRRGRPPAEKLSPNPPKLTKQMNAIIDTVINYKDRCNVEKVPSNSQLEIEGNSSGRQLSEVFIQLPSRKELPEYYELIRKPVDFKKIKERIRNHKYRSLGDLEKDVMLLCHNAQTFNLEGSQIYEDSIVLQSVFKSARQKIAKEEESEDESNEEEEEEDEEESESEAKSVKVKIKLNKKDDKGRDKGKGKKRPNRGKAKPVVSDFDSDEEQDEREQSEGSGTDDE

| Dmax [1] | DC50 [1] | Dmax [2] | Dmax [3] | DC50 ([3]; read-out: SMARCA2 MSD A549 degradation 24h: Average external-Abs DC50) | Dmax ([4]; read-out: SMARCA2 WB MV411 degradation 24h: Average Dmax %) | DC50 ([4]; read-out: SMARCA2 WB MV411 degradation 24h: Average external-Abs DC50) | SMILES |
| --- | --- | --- | --- | --- | --- | --- | --- |
| < 50% | 0.1 to 0.5 µM | < 50% |  |  |  |  | Cn1c(=O)n(C2CCC(=O)NC2=O)c2cccc(CCCOCCCN3CCC(c4c[nH]c5nnc(-c6ccccc6O)cc45)CC3)c21 (centres unmarked) [I-6] |
| < 50% | < 0.1 µM | < 50% |  |  |  |  | Cn1c(=O)n(C2CCC(=O)NC2=O)c2ccc(CCCCCCCCCN3CCC(c4c[nH]c5nnc(-c6ccccc6O)cc45)CC3)cc21 (centres unmarked) [I-7] |
|  |  | 50 to 70% |  |  |  |  | Cc1ncsc1-c1ccc(CNC(=O)[C@@H]2C[C@@H](O)CN2C(=O)[C@@H](NC(=O)CCCCCCCCCN2CCC(c3c[nH]c4nnc(-c5ccccc5O)cc34)CC2)C(C)(C)C)cc1 [I-8] |
|  |  | < 50% |  |  |  |  | Cc1ncsc1-c1ccc(CNC(=O)[C@@H]2C[C@@H](O)CN2C(=O)[C@@H](NC(=O)CCCCCN2CCC(c3c[nH]c4nnc(-c5ccccc5O)cc34)CC2)C(C)(C)C)cc1 [I-9] |
| < 50% | < 0.1 µM | < 50% |  |  |  |  | Cn1c(=O)n(C2CCC(=O)NC2=O)c2cccc(CCCCCN3CCC(c4c[nH]c5nnc(-c6ccccc6O)cc45)CC3)c21 (centres unmarked) [I-10] |
| < 50% |  | < 50% |  |  |  |  | Cn1c(=O)n(C2CCC(=O)NC2=O)c2cccc(CCCN3CCC(c4c[nH]c5nnc(-c6ccccc6O)cc45)CC3)c21 (centres unmarked) [I-11, 3-(4-(3-(4-(3-(2-hydroxyphenyl)-7H-pyrrolo[2,3-c]pyridazin-5-yl)piperidin-1-yl)propyl)-3-methyl-2-oxo-2,3-dihydro-1H-benzo[d]imidazol-1-yl)piperidine-2,6-dione] |
|  |  | < 50% |  |  |  |  | Cc1ncsc1-c1ccc(CNC(=O)[C@@H]2C[C@@H](O)CN2C(=O)[C@@H](NC(=O)CCCCCCCN2CCC(c3c[nH]c4nnc(-c5ccccc5O)cc34)CC2)C(C)(C)C)cc1 [I-12] |
| < 50% | < 0.1 µM | < 50% |  |  |  |  | Cn1c(=O)n(C2CCC(=O)NC2=O)c2cccc(CN3CCC(c4c[nH]c5nnc(-c6ccccc6O)cc45)CC3)c21 (centres unmarked) [I-13] |
| 50 to 70% | > 1 µM |  | > 90% | < 0.1 µM | > 90% | < 0.1 µM | Cc1ncsc1-c1ccc(CNC(=O)[C@@H]2C[C@@H](O)CN2C(=O)[C@@H](NC(=O)[C@H]2CC[C@H](c3cnc(N4CCC(c5c[nH]c6nnc(-c7ccccc7O)cc56)CC4)nc3)CC2)C(C)(C)C)cc1 [I-46, (2S,4R)-4-hydroxy-1-((S)-2-((1r,4S)-4-(2-(4-(3-(2-hydroxyphenyl)-7H-pyrrolo[2,3-c]pyridazin-5-yl)piperidin-1-yl)pyrimidin-5-yl)cyclohexanecarboxamido)-3,3-dimethylbutanoyl)-N-(4-(4-methylthiazol-5-yl)benzyl)pyrrolidine-2-carboxamide] |
